Reference: EP0390673A1, “5-Acyl-benzoxazolinone derivatives, processes for their preparation and pharmaceutical compositions containing them” (ADIR ET COMPAGNIE, priority 1989, dated 1990)

System: souris
Assay: Analgesic activity, Siegmund test (phenyl-p-benzoquinone-induced stretching)
Type: in vivo
Conditions: Mus musculus; oral, 1 hour before i.p. phényl-p-benzoquinone 0,02 %; stretches counted between minutes 5 and 10; read-out: ED₅₀, dose entraînant une activité de 50%
Source text: L'activité sur la douleur a été recherchée chez la souris (23-25 g) selon un protocole dérivé de la technique décrite par SIEGMUND (SIEGMUND E.A., R.A. CADMUS & GOLU, J. Pharm. Exp. Ther. 119, 1874, 1954). Les souris, réparties par randomisation en lots de 12 animaux, ont reçu le traitement par voie orale (excipient pour les témoins) 1 heure avant l'injection intra-péritonéale d'une solution hydroalcoolique de phényl-p-benzoquinone (Sigma) à 0,02 %. Les étirements sont dénombrés entre la 5ème et 10ème minute après l'injection.
Le pourcentage d'activité obtenu a été évalué pour chaque dose (% de diminution du nombre d'étirements chez les traités par rapport aux témoins). Une ED₅₀, dose entraînant une activité de 50%, a été déterminée pour chaque produit.

Work on O=C(c1ccccc1)c1ccc2oc(=O)[nH]c2c1 [Exemple 1, BENZOYL-5 BENZOXAZOLINONE] yielded an ED50 of roughly 5 mg/kg.
